Legend:
KRAS G12D = KRAS G12D (Homo sapiens (Human), UniProt P01116, G12D); assay: KRas (G12D) GDP HTRF (BODIPY-GDP exchange TR-FRET); type: biochemical
Description: (§1) KRAS Biochemical Assay—BODIPY-GDP Exchange TR-FRET. Biochemical compound potencies were assessed by evaluating inhibition of SOS1-mediated nucleotide exchange in KRAS G12D. The SOS1-promoted exchange of fluorescently-labeled GDP (BODIPY-GDP) was monitored by time-resolved fluorescence resonance energy transfer (TR-FRET). Compounds solubilized in DMSO were dispensed as concentration series into 384-well white assay plates. A preformed complex of biotin-tagged recombinant human KRAS (1.5 nM mutant G12D or wild type) and 0.15 nM terbium-labeled streptavidin (CisBIO) prepared in 10 μL/well assay buffer (20 mM HEPES, pH 7.5, 50 mM NaCl, 10 mM MgCl2, 0.01% Tween-20 and 1 mM dithiothreitol) was added and allowed to incubate for 10-minutes. The reaction was initiated with the addition of 5 μL of 3 nM recombinant human SOS1 and 300 nM BODIPY-GDP in assay buffer. After a 60-minute incubation, the fluorescence was measured with excitation at 337 nm and emission at 490 and 520 nm. The TR-FRET ratio was determined as the fluorescence at 520 nm divided by the fluorescence at 490 nm multiplied by 10,000. […] The normalized TR-FRET results were plotted against compound concentration, and the data fit to a 4-parameter Hill equation to determine the IC50 values.

KRAS wild type = KRAS wild type (Homo sapiens (Human), UniProt P01116); assay: KRas (wt) GDP HTRF (BODIPY-GDP exchange TR-FRET); type: biochemical
Description: as §1

[1] = biological target: Raf-RBD/KRAS G12D interaction (Homo sapiens (Human), UniProt P01116, G12D); assay: KRAS G12D NanoBRET assay; type: cell-based; details: HCT116
Description: KRAS G12D NanoBRET Assay. Cellular target engagement was assessed by monitoring inhibition of the Raf-RBD/KRAS G12D interaction in a NanoBRET™ assay (Promega). […] Cells were seeded into 384-well white tissue culture-treated assay plates in 40 μL culture medium (RPMI-1640 with 10% fetal bovine serum, 2 mM glutamine, […] puromycin, and 4 ng/mL blasticidin) with doxycycline to induce KRAS G12D-nanoluciferase expression over 20-24 h at 37° C., 5% CO2. The culture medium was then removed and replaced with assay medium (Opti-MEM® with 4% fetal bovine serum) and 0.1 μM HaloTag618 ligand. During the subsequent 4 h incubation at 37° C., 5% CO2, the HaloTag618 ligand binds to the Halotag-labeled KRAS G12D. Compounds solubilized in DMSO were then added as dilution series to the wells in a total volume of 160 nL (0.4% DMSO final), and the plates were incubated overnight at 37° C., 5% CO2. In the final step, 10 μL NanoGlo substrate in Opti-MEM was added to each well, and the emission read at 460 nm (luciferase signal) and 610 nm (NanoBRET signal) on an EnVision plate reader (PerkinElmer). The Raf-RBD/KRAS G12D interaction results in bioluminescence resonance energy transfer (BRET) from the product of the luciferase reaction in the vicinity of the Raf-RBD to the HaloTag ligand acceptor on the KRAS G12D and generates the NanoBRET signal. Binding of compounds to KRAS G12D and disruption of its interaction with Raf-RBD results in reduction of this signal. The luciferase signal and NanoBRET signal for compound wells were divided by the average corresponding signal for DMSO control wells. Then the NanoBRET ratio was calculated by dividing the control-adjusted NanoBRET signal by the similarly adjusted luciferase signal. […] The normalized NanoBRET ratio results were plotted against compound concentration, and the data fit to a 4-parameter Hill equation to determine the IC50 values.

[2] = system: KRAS G12D human pancreatic cell lines (AsPC-1 and SW1990); assay: KRAS 3D-cell proliferation assay, CTG panel (G12D); type: cell-based; details: 168 h, CellTiter-Glo 3D, 7 days
Description: (§2) KRAS 3D-Cell Proliferation Assays. Cellular potencies of compounds were assessed by evaluating inhibition of proliferation in 3D cultures of homozygous mutant KRAS G12D human pancreatic cell lines (AsPC-1 and SW1990) as compared to a KRAS wild type human lung adenocarcinoma cell line (PC-9). Cells were seeded into 384-well black round-bottom, ultra-low attachment assay plates in 50 μL cell growth medium (RPMI-1640 with 10% fetal bovine serum and 2 mM L-glutamine). After overnight incubation at 37° C. and 5% CO2, compounds solubilized in DMSO were added as dilution series to the wells in a total volume of 150 nL (0.3% DMSO final). The cells were incubated for 7 days at 37° C. and 5% CO2. Cell proliferation was quantitated by addition of 40 μL/well of CellTiter-Glo® 3D (Promega). This reagent in combination with mechanical disruption releases the cellular ATP to promote activity in a luciferase-based enzyme/substrate chemiluminescent detection system. After a 25-minute incubation under ambient conditions with shaking and an additional 10 minutes without shaking, the contents of the wells were mixed by pipetting up and down repeatedly to disrupt the spheroids, and then the plates were centrifuged to remove bubbles. The plates were incubated for another 15 minutes under ambient conditions, and the luminescence read on a plate reader (e.g. EnVision [PerkinElmer]). […] The normalized luminescence results were plotted against compound concentration, and the data fit to a 4-parameter Hill equation to determine the IC50 values.

[3] = system: KRAS wild type human lung adenocarcinoma cell line (PC-9); assay: KRAS 3D-cell proliferation assay, CTG panel non G12D; type: cell-based; details: 168 h, CellTiter-Glo 3D, 7 days
Description: as §2

KRAS wild type, sequence (P01116-2 other isoform, or with tags, fused parts or gaps): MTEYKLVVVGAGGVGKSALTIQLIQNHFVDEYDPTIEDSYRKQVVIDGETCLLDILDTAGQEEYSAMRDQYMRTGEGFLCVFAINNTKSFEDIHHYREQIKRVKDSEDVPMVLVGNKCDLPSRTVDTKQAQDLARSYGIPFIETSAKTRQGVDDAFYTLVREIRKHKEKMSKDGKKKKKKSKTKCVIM
KRAS G12D, sequence (P01116-2 other isoform, or with tags, fused parts or gaps G12D): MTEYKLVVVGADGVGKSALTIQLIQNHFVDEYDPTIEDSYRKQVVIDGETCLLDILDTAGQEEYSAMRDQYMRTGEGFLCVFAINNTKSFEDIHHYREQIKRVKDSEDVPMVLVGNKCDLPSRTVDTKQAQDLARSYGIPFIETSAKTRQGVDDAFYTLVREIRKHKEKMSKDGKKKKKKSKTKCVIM
Raf-RBD/KRAS G12D interaction, sequence (P01116-2 other isoform, or with tags, fused parts or gaps G12D): as above

Compound	IC50 (KRAS G12D)	IC50 (KRAS wild type)	IC50 [1]	IC50 [2]	IC50 [3]
Cc1cc(N)nc(-c2cc3ncnc4c3c(c2Cl)OC[C@H](CC#N)N4C2CCNC2)c1C(F)(F)F (single isomer, unassigned) [Example 507]	0.276 µM	8.65 µM	≥ 10 µM	–	–
Cc1cc(N)nc(-c2cc3ncnc4c3c(c2Cl)OC[C@H](CC#N)N4C2CCNC2)c1C(F)(F)F (single isomer, unassigned) [Example 508]	0.472 µM	8.11 µM	≥ 10 µM	–	–
C=C1CN2CCC[C@@]2(COc2nc3c4c(c(Cl)c(-c5nc(N)cc(C)c5C(F)(F)F)c(F)c4n2)OCCN3CCN(C)C)C1 (single isomer, unassigned) [Example 513]	0.00155 µM	0.0108 µM	2.58 µM	1.08 µM	2.29 µM
C=C1CN2CCC[C@@]2(COc2nc3c4c(c(Cl)c(-c5nc(N)cc(C)c5C(F)(F)F)c(F)c4n2)OCCN3CCN(C)C)C1 (single isomer, unassigned) [Example 514]	0.817 µM	4.12 µM	≥ 10 µM	–	–
C=C1CN2CCC[C@@]2(COc2nc3c4c(c(F)c(-c5nc(N)cc(C)c5C(F)(F)F)c(F)c4n2)OCCN3CCN(C)C)C1 (single isomer, unassigned) [Example 523]	0.0119 µM	0.088 µM	≥ 10 µM	–	7.7 µM
C=C1CN2CCC[C@@]2(COc2nc3c4c(c(F)c(-c5nc(N)cc(C)c5C(F)(F)F)c(F)c4n2)OCCN3CCN(C)C)C1 (single isomer, unassigned) [Example 524]	0.48 µM	2.68 µM	≥ 10 µM	–	–
Cc1cc(N)nc(-c2cc3ncnc4c3c(c2Cl)OCCN4CCN(C)C)c1C(F)(F)F [Example 501, 6-(8-Chloro-4-(2-(dimethylamino)ethyl)-5,6-dihydro-4H-[1,4]oxazepino[5,6,7-de]quinazolin-9-yl)-4-methyl-5-(trifluoromethyl)pyridin-2-amine]	4.16 µM	109 µM	≥ 10 µM	–	–
Cc1cc(N)nc(-c2cc3ncnc4c3c(c2Cl)OCCN4CCN(C)CCO)c1C(F)(F)F [Example 502, 2-((2-(9-(6-Amino-4-methyl-3-(trifluoromethyl)pyridin-2-yl)-8-chloro-5,6-dihydro-4H-[1,4]oxazepino[5,6,7-de]quinazolin-4-yl)ethyl)(methyl)amino)ethan-1-ol]	2.77 µM	71.4 µM	≥ 10 µM	9.65 µM	7.88 µM
CNCCN1CCOc2c(Cl)c(-c3nc(N)cc(C)c3C(F)(F)F)cc3ncnc1c23 [Example 503]	4.62 µM	94.3 µM	≥ 10 µM	–	–
Cc1cc(N)nc(-c2cc3ncnc4c3c(c2Cl)OCCN4CCN2CCOCC2)c1C(F)(F)F [Example 504]	3.46 µM	15.1 µM	≥ 10 µM	14.9 µM	18.5 µM
Cc1cc(N)nc(-c2cc3ncnc4c3c(c2Cl)OCCN4C2CCNC2)c1C(F)(F)F (stereo not shown) [Example 505]	1.73 µM	66.4 µM	≥ 10 µM	–	–
Cc1cc(N)nc(-c2cc3ncnc4c3c(c2Cl)OCCN4C2CCNC2)c1C(F)(F)F (stereo not shown) [Example 506]	2.4 µM	55 µM	≥ 10 µM	–	–
Cc1cc(N)nc(-c2cc3nc(OC[C@@H]4C[C@@H](F)CN4C)nc4c3c(c2Cl)OCCN4CCN(C)C)c1C(F)(F)F [Example 509, 6-(8-Chloro-4-(2-(dimethylamino)ethyl)-2-(((2S,4R)-4-fluoro-1-methylpyrrolidin-2-yl)methoxy)-5,6-dihydro-4H-[1,4]oxazepino[5,6,7-de]quinazolin-9-yl)-4-methyl-5-(trifluoromethyl)pyridin-2-amine]	0.164 µM	1.66 µM	9.85 µM	–	–
Cc1cc(N)nc(-c2cc3nc(OCC45CCCN4CCC5)nc4c3c(c2Cl)OCCN4CCN(C)C)c1C(F)(F)F [Example 510]	0.0136 µM	0.24 µM	≥ 10 µM	–	–
C=C1CN2CCC[C@@]2(COc2nc3c4c(c(Cl)c(-c5nc(N)cc(C)c5C(F)(F)F)cc4n2)OCCN3CCN(C)C)C1 [Example 511]	0.00607 µM	0.0484 µM	8.05 µM	2.24 µM	2.96 µM
C=C1CN2CCC[C@@]2(COc2nc3c4c(c(Cl)c(-c5nc(N)cc(C)c5C(F)(F)F)c(F)c4n2)OCCN3C2CCNC2)C1 (stereo partly shown) [Example 515]	0.00339 µM	0.02 µM	–	–	–
C=C1CN2CCC[C@@]2(COc2nc3c4c(c(Cl)c(-c5nc(N)cc(C)c5C(F)(F)F)c(F)c4n2)OCCN3C2CCNC2)C1 (stereo partly shown) [Example 518]	0.029 µM	0.128 µM	–	–	–

— patent US20240383915A1, “OXAZEPINE COMPOUNDS AND USES THEREOF IN THE TREATMENT OF CANCER” (Genentech, Inc., priority 2021, published 2024)
